# Test results published in patent publication US7138361B2, “Herbicidal heterocycles” (E. I. du Pont de Nemours and Company, priority 2000, dated 2006).
# Legend:
# Type in all cases: in vivo
# [1] = tested on: pigweed (Amaranthus retroflexus); assay: Test B preemergence
# Procedure, shortened: (§1)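 Greenhouse test: chemicals are formulated in a surfactant-containing non-phytotoxic solvent and applied either preemergence to planted seeds or postemergence to plants 2 to 18 cm tall. Response is rated visually versus controls after 13 to 15 days, 0 meaning no effect and 100 complete control.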
# [2] = tested on: Surinam grass (Brachiaria decumbens); assay: Test B preemergence
# Procedure, shortened: as §1
# [3] = tested on: velvetleaf (Abutilon theophrasti); assay: Test B preemergence
# Procedure, shortened: as §1
# rice (Oryza saliva) = assay: Test B preemergence
# Procedure, shortened: as §1
# corn (Zea mays) = assay: Test B preemergence
# Procedure, shortened: as §1
# [4] = tested on: giant foxtail (Setaria faberii); assay: Test B preemergence
# Procedure, shortened: as §1
# [5] = tested on: barnyardgrass (Echinochloa crus-galli); assay: Test B preemergence
# Procedure, shortened: as §1
# [6] = tested on: crabgrass (Digitaria sanguinalis); assay: Test B preemergence
# Procedure, shortened: as §1
# [7] = tested on: morning glory (Ipomoea hederacea); assay: Test B preemergence
# Procedure, shortened: as §1
# [8] = tested on: lambsquarters (Chenopodium album); assay: Test B preemergence
# Procedure, shortened: as §1
# [9] = tested on: cocklebur (Xanthium strumarium); assay: Test B preemergence
# Procedure, shortened: as §1
# [10] = tested on: pigweed (Amaranthus retroflexus); assay: Test C preemergence; conditions: for Plant response rating (0 to 100), Pigweed: visual evaluation after 12 to 14 days
# Procedure, shortened: (§2)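 Pre- and postemergence treatments used a non-phytotoxic solvent/surfactant formulation; post-treated plants measured 2 to 18 cm. Greenhouse hold 12–14 d; % control estimated visually relative to controls.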
# [11] = tested on: Surinam grass (Brachiaria decumbens); assay: Test C preemergence; conditions: for Plant response rating (0 to 100), Surinam grass: visual evaluation after 12 to 14 days
# Procedure, shortened: as §2
# [12] = tested on: goosegrass (Eleusine indica); assay: Test C preemergence; conditions: for Plant response rating (0 to 100), Goosegrass: visual evaluation after 12 to 14 days
# Procedure, shortened: as §2
# soybean (Glycine max) = assay: Test C preemergence; conditions: for Plant response rating (0 to 100), Soybean: visual evaluation after 12 to 14 days
# Procedure, shortened: as §2
# [13] = tested on: woolly cupgrass (Eriochloa villosa); assay: Test C preemergence; conditions: for Plant response rating (0 to 100), Cupgrass, Woolly: visual evaluation after 12 to 14 days
# Procedure, shortened: as §2
# [14] = tested on: crabgrass (Digitaria sanguinalis); assay: Test C preemergence; conditions: for Plant response rating (0 to 100), Crabgrass: visual evaluation after 12 to 14 days
# Procedure, shortened: as §2
# [15] = tested on: lambsquarters (Chenopodium album); assay: Test C preemergence; conditions: for Plant response rating (0 to 100), Lambsquarters: visual evaluation after 12 to 14 days
# Procedure, shortened: as §2
# [16] = tested on: cocklebur (Xanthium strumarium); assay: Test C preemergence; conditions: for Plant response rating (0 to 100), Cocklebur: visual evaluation after 12 to 14 days
# Procedure, shortened: as §2
# Nightshade = assay: Test C preemergence
# [17] = tested on: common ragweed (Ambrosia elatior); assay: Test C preemergence; conditions: for Plant response rating (0 to 100), Ragweed, Common: visual evaluation after 12 to 14 days
# Procedure, shortened: as §2
# [18] = Preemergence, Rate 500 g/ha, scale 0 to 100, 0 no effect, 100 complete control
# [19] = preemergence, Rate 125 g/ha, scale 0 to 100, 0 no effect, 100 complete control
# [20] = Preemergence, Rate 500 g/ha, scale 0 to 100
# [21] = Rate 62 g/ha, scale 0 to 100, 0 no effect, 100 complete control
# [22] = preemergence, Rate 125 g/ha, scale of 0 to 100 where 0 is no effect and 100 is complete control, 13 to 15 days
# [23] = Rate 125 g/ha, scale 0 to 100, 0 no effect, 100 complete control
# [24] = preemergence, Rate 62 g/ha, scale 0 to 100
# [25] = preemergence, Rate 250 g/ha, scale 0 to 100, 0 no effect, 100 complete control
structure (smiles),measurement,setting,value
CC(C)(C)c1ccn(C2CCN(c3cccc(Br)c3)C2=O)n1 (centres unmarked) [Compound 33],"Plant response rating, Pigweed",[1]; [18],100
same,"Plant response rating, Surinam grass",[2]; [18],60
same,"Plant response rating, Surinam grass",[2]; [19],30
same,"Plant response rating, Velvetleaf",[3]; [18],0
same,"Plant response rating, Rice",rice (Oryza saliva); [18],0
same,"Plant response rating, Corn",corn (Zea mays); [18],0
same,"Plant response rating, Corn",corn (Zea mays); [19],0
same,"Plant response rating, Foxtail, Giant",[4]; [18],80
same,"Plant response rating, Foxtail, Giant",[4]; [19],20
same,"Plant response rating, Barnyardgrass",[5]; [18],80
same,"Plant response rating, Barnyardgrass",[5]; [19],30
same,"Plant response rating, Crabgrass",[6]; [18],100
same,"Plant response rating, Crabgrass",[6]; [19],0
same,"Plant response rating, Morningglory",[7]; [18],0
same,"Plant response rating, Lambsquarters",[8]; [18],100
same,"Plant response rating, Lambsquarters",[8]; [19],90
same,"Plant response rating, Cocklebur",[9]; [19],0
same,"Plant response rating, Pigweed",[10]; [20],100
same,"Plant response rating, Pigweed",[10]; [21],0
same,"Plant response rating (0 to 100), Pigweed","[10]; preemergence, Rate 250 g/ha",60
same,"Plant response rating, Pigweed",[10]; [19],0
same,"Plant response rating, Surinam grass",[11]; [20],100
same,"Plant response rating, Surinam grass",[11]; [21],0
same,"Plant response rating (0 to 100), Surinam grass","[11]; preemergence, Rate 250 g/ha",90
same,"Plant response rating, Surinam grass",[11]; [19],0
same,"Plant response rating, Goosegrass",[12]; [20],100
same,"Plant response rating, Goosegrass",[12]; [21],80
same,"Plant response rating (0 to 100), Goosegrass","[12]; preemergence, Rate 250 g/ha",100
same,"Plant response rating, Goosegrass",[12]; [19],100
same,"Plant response rating, Soybean",soybean (Glycine max); [20],0
same,"Plant response rating, Soybean",soybean (Glycine max); [21],0
same,"Plant response rating (0 to 100), Soybean","soybean (Glycine max); preemergence, Rate 250 g/ha",0
same,"Plant response rating, Soybean",soybean (Glycine max); [19],0
same,"Plant response rating, Cupgrass, Woolly",[13]; [20],100
same,"Plant response rating, Cupgrass, Woolly",[13]; [21],20
same,"Plant response rating (0 to 100), Cupgrass, Woolly","[13]; preemergence, Rate 250 g/ha",100
same,"Plant response rating, Cupgrass, Woolly",[13]; [19],90
same,"Plant response rating, Crabgrass",[14]; [20],100
same,"Plant response rating, Crabgrass",[14]; [21],80
same,"Plant response rating (0 to 100), Crabgrass","[14]; preemergence, Rate 250 g/ha",100
same,"Plant response rating, Crabgrass",[14]; [19],100
same,"Plant response rating, Lambsquarters",[15]; [20],100
same,"Plant response rating, Lambsquarters",[15]; [21],100
same,"Plant response rating (0 to 100), Lambsquarters","[15]; preemergence, Rate 250 g/ha",100
same,"Plant response rating, Lambsquarters",[15]; [19],100
same,"Plant response rating, Cocklebur",[16]; [20],0
same,"Plant response rating, Cocklebur",[16]; [21],0
same,"Plant response rating (0 to 100), Cocklebur","[16]; preemergence, Rate 250 g/ha",0
same,"Plant response rating, Cocklebur",[16]; [19],0
same,"Plant response rating, Nightshade",Nightshade; [21],0
same,"Plant response rating, Nightshade","Nightshade; Rate 500 g/ha, scale 0 to 100",100
same,"Plant response rating, Ragweed, Common",[17]; [20],30
same,"Plant response rating, Ragweed, Common",[17]; [21],0
same,"Plant response rating (0 to 100), Ragweed, Common","[17]; preemergence, Rate 250 g/ha",0
same,"Plant response rating, Ragweed, Common",[17]; [19],0
COc1cccc(N2CCC(n3ccc(C(C)(C)C)n3)C2=O)c1 (centres unmarked) [Compound 87],"Plant response rating, Pigweed",[1]; [18],100
same,"Plant response rating, Pigweed",[1]; [22],100
same,"Plant response rating, Surinam grass",[2]; [18],100
same,"Plant response rating, Surinam grass",[2]; [22],80
same,"Plant response rating, Velvetleaf",[3]; [18],0
same,"Plant response rating, Velvetleaf",[3]; [22],0
same,"Plant response rating, Rice",rice (Oryza saliva); [18],100
same,"Plant response rating, Rice",rice (Oryza saliva); [22],70
same,"Plant response rating, Corn",corn (Zea mays); [18],60
same,"Plant response rating, Corn",corn (Zea mays); [22],30
same,"Plant response rating, Foxtail, Giant",[4]; [18],100
same,"Plant response rating, Foxtail, Giant",[4]; [22],100
same,"Plant response rating, Barnyardgrass",[5]; [18],100
same,"Plant response rating, Barnyardgrass",[5]; [22],100
same,"Plant response rating, Crabgrass",[6]; [18],100
same,"Plant response rating, Crabgrass",[6]; [22],100
same,"Plant response rating, Morningglory",[7]; [18],0
same,"Plant response rating, Morningglory",[7]; [22],0
same,"Plant response rating, Lambsquarters",[8]; [18],100
same,"Plant response rating, Lambsquarters",[8]; [22],100
same,"Plant response rating, Cocklebur",[9]; [18],0
same,"Plant response rating, Cocklebur",[9]; [22],0
same,"Plant response rating, Pigweed",[10]; [23],0
same,"Plant response rating, Pigweed",[10]; [24],0
same,"Plant response rating (0 to 100), Pigweed","[10]; preemergence, Rate 500 g/ha",100
same,"Plant response rating, Pigweed",[10]; [25],100
same,"Plant response rating, Surinam grass",[11]; [23],100
same,"Plant response rating, Surinam grass",[11]; [24],40
same,"Plant response rating (0 to 100), Surinam grass","[11]; preemergence, Rate 250 g/ha",100
same,"Plant response rating (0 to 100), Surinam grass","[11]; preemergence, Rate 500 g/ha",100
same,"Plant response rating, Goosegrass",[12]; [23],100
same,"Plant response rating, Goosegrass",[12]; [24],100
same,"Plant response rating (0 to 100), Goosegrass","[12]; preemergence, Rate 250 g/ha",100
same,"Plant response rating (0 to 100), Goosegrass","[12]; preemergence, Rate 500 g/ha",100
same,"Plant response rating, Soybean",soybean (Glycine max); [23],20
same,"Plant response rating, Soybean",soybean (Glycine max); [24],0
same,"Plant response rating (0 to 100), Soybean","soybean (Glycine max); preemergence, Rate 500 g/ha",30
same,"Plant response rating, Soybean",soybean (Glycine max); [25],20
same,"Plant response rating, Cupgrass, Woolly",[13]; [23],100
same,"Plant response rating, Cupgrass, Woolly",[13]; [24],90
same,"Plant response rating (0 to 100), Cupgrass, Woolly","[13]; preemergence, Rate 250 g/ha",100
same,"Plant response rating (0 to 100), Cupgrass, Woolly","[13]; preemergence, Rate 500 g/ha",100
same,"Plant response rating, Crabgrass",[14]; [23],100
same,"Plant response rating, Crabgrass",[14]; [24],100
same,"Plant response rating (0 to 100), Crabgrass","[14]; preemergence, Rate 250 g/ha",100
same,"Plant response rating (0 to 100), Crabgrass","[14]; preemergence, Rate 500 g/ha",100
same,"Plant response rating, Lambsquarters",[15]; [23],100
same,"Plant response rating, Lambsquarters",[15]; [24],100
same,"Plant response rating (0 to 100), Lambsquarters","[15]; preemergence, Rate 500 g/ha",100
same,"Plant response rating, Lambsquarters",[15]; [25],100
same,"Plant response rating, Cocklebur",[16]; [23],0
same,"Plant response rating, Cocklebur",[16]; [24],0
same,"Plant response rating (0 to 100), Cocklebur","[16]; preemergence, Rate 250 g/ha",0
same,"Plant response rating (0 to 100), Cocklebur","[16]; preemergence, Rate 500 g/ha",0
same,"Plant response rating, Nightshade","Nightshade; Rate 62 g/ha, scale 0 to 100",0
same,"Plant response rating, Nightshade",Nightshade; [23],10
same,"Plant response rating, Nightshade","Nightshade; Rate 250 g/ha, scale 0 to 100, 0 no effect, 100 complete control",60
same,"Plant response rating, Ragweed, Common",[17]; [23],0
same,"Plant response rating, Ragweed, Common",[17]; [24],0
same,"Plant response rating (0 to 100), Ragweed, Common","[17]; preemergence, Rate 500 g/ha",0
same,"Plant response rating, Ragweed, Common",[17]; [25],0
